Patent publication US11767352B2, “Histone anti-cancer vaccines” (DEUTSCHES KREBSFORSCHUNGSZENTRUM, priority 2015, dated 2023)

Legend:
A2.DR1 mice [1] = experiment: Intracellular flow cytometry of splenocyte IFNγ responses after vaccination of A2.DR1 mice; assay type: in vivo; conditions: for IFNγ+ CD8+ T-cell response (intracellular flow cytometry): vaccination with peptide in Montanide, re-stimulation with K27M26-35 or K27 wt26-35, gated on CD45+ CD3+ CD8+ cells
Description: (§1) Numbers of spots to MOG35-55 as negative control were subtracted. Mean+/−s.e.m. of n=4 mice per group and representative ELISpots are shown. **p<0.01. (B/C): H3.3-peptide libraries are used to assess MHC binding epitopes in silico: MHC peptide binding predictions for H3.3 K27M (red)- and K27 wt (blue)-containing 10-mer peptides to HLA-A*02:01 using NetMHC algorithm (B) and MHC peptide binding analysis for H3.3 K27M26-35 (red) or K27 wt26-35 (blue) depending on MHC-class-I haplotype (C). Peptides with logscore affinity >0.4 are defined as potential binders. […] Re-stimulation with the vehicle DMSO served as control; gated on CD45+ CD3+ CD8+ cells.
(§2) As antigen presentation and induction of an effective immune response is critically dependent on MHC haplotype, binding affinities of K27M26-35 to the most frequent class I haplotypes were analyzed. […] Thus, anti-tumor efficacy of H3.3 K27M peptide vaccination was further investigated in a syngeneic HLA-A*02 tumor model.

A2.DR1 mice [2] = experiment: Flow cytometry detection of peptide-specific CD8 T-cells with HLA-A2 dextramer after vaccination of A2.DR1 mice; assay type: in vivo; conditions: splenocytes after vaccination in Montanide, gated on CD45+ CD3+ cells
Description: as §1, §2

“RMSAPSTGGV (listed as Homo sapiens) [K27M26-35, peptide corresponding to amino acids 26-35 of K27M Histone H3.3]” was tested, and the “immune response, HLA-A*02 restricted (summary statement)” value (A2.DR1 mice [1]; according to the examples) was “surprisingly strong immune response”, the “IFNγ+ CD8+ T-cell response (intracellular flow cytometry)” value (A2.DR1 mice [1]) was “induced IFNγ^+CD8^+-driven mutation-specific cytotoxic T-cell responses” and the “IFNγ+ CD8+ T-cell response (intracellular flow cytometry)” value (A2.DR1 mice [1]; listed as H3.3 K27M26-35) was “induces a mutation-specific CD8-driven T-cell response”. The “peptide-specific CD8+ T-cells detected with HLA-A2 dextramer” value (A2.DR1 mice [2]) was “could be detected directly” and the “peptide-specific CD8+ T-cells detected with HLA-A2 dextramer” value (A2.DR1 mice [2]; listed as H3.3 K27M26-35) was “CD8-positive T-cells are detected with HLA-A2 multimers”.
